Laboratory results: paper PMC11397024, “Strategic Fluorination to Achieve a Potent, Selective, Metabolically Stable, and Orally Bioavailable Inhibitor of CSNK2” (Molecules, 2024)

Assays:
Experiment in all cases: NanoBRET K192
Format in all cases: cell-based
Details in all cases: HEK293
[1] = biological target: T1, NEK1 (Homo sapiens, UniProt Q96PY6)
T1 construct: purchased Promega (NanoBRET Target Engagement K192 Kinase Selectivity System)
Description: (§1) The K192 selectivity assay was run according to the Draft Promega technical manual, NanoBRET^TM Target Engagement K192 Kinase Selectivity System. Reagents were supplied by Promega (Promega NP 4101). For the assay, DNA from the prepared kinase vector panel plates A and B were mixed with Fugene in 96-well plates (Corning 3917) and incubated at room temperature for 30 min. The NanoLuc® Low control vector pNL1.1.CMV [Nluc/CMV] Vector (Cat.# N1091) and the transfection control vector NanoLuc®-HIPK2 Fusion Vector (Cat.# NV3221) were used as controls.
(§2) HEK293 cells were grown to 75–95% confluency in DMEM (Gibco 11995-065) supplemented with FBS (Avantor 97068-085) at 37 °C in […]. On the first day of the assay, cells were harvested and resuspended in Opti-MEM (Gibco 11058-021) supplemented with 1% FBS (Avantor 97068-085) at 2.5 × 10^5 cells per mL. A volume of 60 μL of cell suspension was mixed with 10 μL of prepared DNA (10X concentration) and 30 μL of Fugene (30 μL/mL in Opti-MEM) as outlined by Promega and incubated overnight at 37 °C in a 5% CO2 incubator.
(§3) On day two of the assay, 5 μL of 20X K10 tracer was prepared and added at concentrations recommended by Promega. Then, 10 μL of test compounds at 100 μM in Opti-MEM (diluted from a 10 mM solution in DMSO) was added to the test wells while an equivalent volume of Opti-MEM was added to the high-control wells. Plates were kept at 37 °C in a 5% CO2 incubator for two hours. After two hours, plates were allowed to equilibrate to room temperature for 15 min. A solution of 3X Complete Substrate plus Inhibitor Solution was freshly prepared, consisting of a 1:166 dilution of NanoBRET™ Nano-Glo® Substrate plus a 1:500 dilution of Extracellular NanoLuc® Inhibitor in Opti-MEM® medium without serum or phenol red. A 50 μL volume of the 3X Complete Substrate plus Inhibitor Solution was added to each assay well, including control wells. After 2–3 min, the plate was shaken at 300 RPM for 10 s, and the donor emission wavelength (450 nm) and acceptor emission wavelength (610 nm) were measured using the Glomax® Discover System.
(§4) As a quality check, the donor signal-to-background ratio was calculated for each individual kinase by dividing the mean donor signal for each kinase by the mean donor signal for the signal-to-background control wells. Fractional occupancy of the test drug for each kinase was determined using the following formula:Occupancy (%) = [1 − (Sample − Bottom)/(Top − Bottom)] × 100 where

[2] = biological target: T2, MAPK6 (Homo sapiens, UniProt Q16659)
T2 construct: purchased Promega (NanoBRET Target Engagement K192 Kinase Selectivity System)
Description: as §1, §2, §3, §4

[3] = biological target: T3, MKNK2 (Homo sapiens, UniProt Q9HBH9)
T3 construct: purchased Promega (NanoBRET Target Engagement K192 Kinase Selectivity System)
Description: as §1, §2, §3, §4

[4] = biological target: T4, BMX (Homo sapiens, UniProt P51813)
T4 construct: purchased Promega (NanoBRET Target Engagement K192 Kinase Selectivity System)
Description: as §1, §2, §3, §4

[5] = biological target: T5, RIPK1 (Homo sapiens, UniProt Q13546)
T5 construct: purchased Promega (NanoBRET Target Engagement K192 Kinase Selectivity System)
Description: as §1, §2, §3, §4

[6] = biological target: T6, HIPK4 (Homo sapiens, UniProt Q8NE63)
T6 construct: purchased Promega (NanoBRET Target Engagement K192 Kinase Selectivity System)
Description: as §1, §2, §3, §4

[7] = biological target: T7, EPHA1 (Homo sapiens, UniProt P21709)
T7 construct: purchased Promega (NanoBRET Target Engagement K192 Kinase Selectivity System)
Description: as §1, §2, §3, §4

[8] = biological target: T8, CDKL1 (Homo sapiens, UniProt Q00532)
T8 construct: purchased Promega (NanoBRET Target Engagement K192 Kinase Selectivity System)
Description: as §1, §2, §3, §4

[9] = biological target: T9, CAMK2A (Homo sapiens, UniProt Q9UQM7)
T9 construct: purchased Promega (NanoBRET Target Engagement K192 Kinase Selectivity System)
Description: as §1, §2, §3, §4

[10] = biological target: T10, SRMS (Homo sapiens, UniProt Q9H3Y6)
T10 construct: purchased Promega (NanoBRET Target Engagement K192 Kinase Selectivity System)
Description: as §1, §2, §3, §4

[11] = biological target: T11, TEC (Homo sapiens, UniProt P42680)
T11 construct: purchased Promega (NanoBRET Target Engagement K192 Kinase Selectivity System)
Description: as §1, §2, §3, §4

[12] = biological target: T12, MAP4K5 (Homo sapiens, UniProt Q9Y4K4)
T12 construct: purchased Promega (NanoBRET Target Engagement K192 Kinase Selectivity System)
Description: as §1, §2, §3, §4

[13] = biological target: T13, PAK6 (Homo sapiens, UniProt Q9NQU5)
T13 construct: purchased Promega (NanoBRET Target Engagement K192 Kinase Selectivity System)
Description: as §1, §2, §3, §4

[14] = biological target: T14, RIPK2 (Homo sapiens, UniProt O43353)
T14 construct: purchased Promega (NanoBRET Target Engagement K192 Kinase Selectivity System)
Description: as §1, §2, §3, §4

[15] = biological target: T15, MLTK (Homo sapiens, UniProt Q9NYL2)
T15 construct: purchased Promega (NanoBRET Target Engagement K192 Kinase Selectivity System)
Description: as §1, §2, §3, §4

[16] = biological target: T16, NEK3 (Homo sapiens, UniProt P51956)
T16 construct: host or cells: HEK293
Description: as §1, §2, §3, §4

[17] = biological target: T17, SIK1 (Homo sapiens, UniProt P57059)
T17 construct: purchased Promega (NanoBRET Target Engagement K192 Kinase Selectivity System)
Description: as §1, §2, §3, §4

[18] = biological target: T18, LIMK1 (Homo sapiens, UniProt P53667)
T18 construct: purchased Promega (NanoBRET Target Engagement K192 Kinase Selectivity System)
Description: as §1, §2, §3, §4

[19] = biological target: T19, CDK4 + D3 (Homo sapiens, UniProt P11802)
T19 construct: purchased Promega (NanoBRET Target Engagement K192 Kinase Selectivity System)
Description: as §1, §2, §3, §4

[20] = biological target: T20, MAP3K12 (Homo sapiens, UniProt Q12852)
T20 construct: purchased Promega (NanoBRET Target Engagement K192 Kinase Selectivity System)
Description: as §1, §2, §3, §4

[21] = biological target: T21, STK38 (Homo sapiens, UniProt Q15208)
T21 construct: purchased Promega (NanoBRET Target Engagement K192 Kinase Selectivity System)
Description: as §1, §2, §3, §4

[22] = biological target: T22, NLK (Homo sapiens, UniProt Q9UBE8)
T22 construct: purchased Promega (NanoBRET Target Engagement K192 Kinase Selectivity System)
Description: as §1, §2, §3, §4

[23] = biological target: T23, CDK17 + Y (Homo sapiens, UniProt Q00537)
T23 construct: purchased Promega (NanoBRET Target Engagement K192 Kinase Selectivity System)
Description: as §1, §2, §3, §4

[24] = biological target: T24, NEK9 (Homo sapiens, UniProt Q8TD19)
T24 construct: purchased Promega (NanoBRET Target Engagement K192 Kinase Selectivity System)
Description: as §1, §2, §3, §4

[25] = biological target: T25, EPHA4 (Homo sapiens, UniProt P54764)
T25 construct: purchased Promega (NanoBRET Target Engagement K192 Kinase Selectivity System)
Description: as §1, §2, §3, §4

[26] = biological target: T26, MAPK11 (Homo sapiens, UniProt Q15759)
T26 construct: purchased Promega (NanoBRET Target Engagement K192 Kinase Selectivity System)
Description: as §1, §2, §3, §4

[27] = biological target: T27, NEK4 (Homo sapiens, UniProt P51957)
T27 construct: purchased Promega (NanoBRET Target Engagement K192 Kinase Selectivity System)
Description: as §1, §2, §3, §4

[28] = biological target: T28, JAK3 (Homo sapiens, UniProt P52333)
T28 construct: purchased Promega (NanoBRET Target Engagement K192 Kinase Selectivity System)
Description: as §1, §2, §3, §4

[29] = biological target: T29, BMP2K (Homo sapiens, UniProt Q9NSY1)
T29 construct: purchased Promega (NanoBRET Target Engagement K192 Kinase Selectivity System)
Description: as §1, §2, §3, §4

T9 sequence (Q9UQM7 whole entry): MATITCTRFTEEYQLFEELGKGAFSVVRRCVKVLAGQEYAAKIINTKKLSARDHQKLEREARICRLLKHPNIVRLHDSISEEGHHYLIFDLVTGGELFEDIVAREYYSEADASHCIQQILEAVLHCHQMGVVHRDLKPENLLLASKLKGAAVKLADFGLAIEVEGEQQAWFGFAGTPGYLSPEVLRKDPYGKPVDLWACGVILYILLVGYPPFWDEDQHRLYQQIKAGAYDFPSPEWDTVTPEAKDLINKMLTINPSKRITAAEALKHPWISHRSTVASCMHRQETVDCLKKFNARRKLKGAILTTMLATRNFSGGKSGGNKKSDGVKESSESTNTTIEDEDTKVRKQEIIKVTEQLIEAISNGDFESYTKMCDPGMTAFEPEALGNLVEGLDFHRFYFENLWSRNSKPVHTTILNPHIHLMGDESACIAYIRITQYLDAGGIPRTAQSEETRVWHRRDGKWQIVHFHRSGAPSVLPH
T15 sequence (Q9NYL2 whole entry): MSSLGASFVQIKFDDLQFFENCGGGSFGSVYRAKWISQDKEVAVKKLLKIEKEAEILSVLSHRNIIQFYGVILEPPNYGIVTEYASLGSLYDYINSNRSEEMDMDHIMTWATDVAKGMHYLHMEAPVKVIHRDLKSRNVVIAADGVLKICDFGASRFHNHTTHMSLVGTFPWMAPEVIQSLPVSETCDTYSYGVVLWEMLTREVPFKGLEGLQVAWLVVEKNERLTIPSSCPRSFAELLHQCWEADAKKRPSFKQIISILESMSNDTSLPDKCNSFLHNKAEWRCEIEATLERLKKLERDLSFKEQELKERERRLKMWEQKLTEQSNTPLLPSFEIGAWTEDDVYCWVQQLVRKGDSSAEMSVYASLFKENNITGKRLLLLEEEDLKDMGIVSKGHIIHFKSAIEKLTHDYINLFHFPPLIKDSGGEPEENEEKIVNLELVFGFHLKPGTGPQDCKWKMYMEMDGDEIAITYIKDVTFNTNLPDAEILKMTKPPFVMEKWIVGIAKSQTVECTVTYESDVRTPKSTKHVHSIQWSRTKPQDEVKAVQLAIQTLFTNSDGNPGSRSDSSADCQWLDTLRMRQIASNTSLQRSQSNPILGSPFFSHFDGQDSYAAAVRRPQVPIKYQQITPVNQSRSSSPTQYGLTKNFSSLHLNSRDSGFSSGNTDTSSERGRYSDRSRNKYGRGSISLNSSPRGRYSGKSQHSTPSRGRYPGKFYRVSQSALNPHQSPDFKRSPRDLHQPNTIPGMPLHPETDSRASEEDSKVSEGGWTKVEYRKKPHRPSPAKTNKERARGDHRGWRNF
T14 sequence (O43353 whole entry): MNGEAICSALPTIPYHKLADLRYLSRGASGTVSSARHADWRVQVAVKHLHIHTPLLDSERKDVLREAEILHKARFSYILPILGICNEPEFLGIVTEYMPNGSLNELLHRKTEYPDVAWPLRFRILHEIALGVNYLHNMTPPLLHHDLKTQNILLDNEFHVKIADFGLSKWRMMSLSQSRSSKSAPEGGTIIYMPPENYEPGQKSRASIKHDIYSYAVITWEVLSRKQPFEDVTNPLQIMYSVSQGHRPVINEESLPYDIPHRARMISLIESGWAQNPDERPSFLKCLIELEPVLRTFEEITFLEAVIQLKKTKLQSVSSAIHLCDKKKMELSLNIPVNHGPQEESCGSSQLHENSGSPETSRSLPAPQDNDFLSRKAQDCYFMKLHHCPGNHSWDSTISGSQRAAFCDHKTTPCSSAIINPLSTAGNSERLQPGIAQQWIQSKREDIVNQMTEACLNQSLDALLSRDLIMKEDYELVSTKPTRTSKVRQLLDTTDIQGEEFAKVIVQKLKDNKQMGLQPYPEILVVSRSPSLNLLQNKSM
T12 sequence (Q9Y4K4 whole entry): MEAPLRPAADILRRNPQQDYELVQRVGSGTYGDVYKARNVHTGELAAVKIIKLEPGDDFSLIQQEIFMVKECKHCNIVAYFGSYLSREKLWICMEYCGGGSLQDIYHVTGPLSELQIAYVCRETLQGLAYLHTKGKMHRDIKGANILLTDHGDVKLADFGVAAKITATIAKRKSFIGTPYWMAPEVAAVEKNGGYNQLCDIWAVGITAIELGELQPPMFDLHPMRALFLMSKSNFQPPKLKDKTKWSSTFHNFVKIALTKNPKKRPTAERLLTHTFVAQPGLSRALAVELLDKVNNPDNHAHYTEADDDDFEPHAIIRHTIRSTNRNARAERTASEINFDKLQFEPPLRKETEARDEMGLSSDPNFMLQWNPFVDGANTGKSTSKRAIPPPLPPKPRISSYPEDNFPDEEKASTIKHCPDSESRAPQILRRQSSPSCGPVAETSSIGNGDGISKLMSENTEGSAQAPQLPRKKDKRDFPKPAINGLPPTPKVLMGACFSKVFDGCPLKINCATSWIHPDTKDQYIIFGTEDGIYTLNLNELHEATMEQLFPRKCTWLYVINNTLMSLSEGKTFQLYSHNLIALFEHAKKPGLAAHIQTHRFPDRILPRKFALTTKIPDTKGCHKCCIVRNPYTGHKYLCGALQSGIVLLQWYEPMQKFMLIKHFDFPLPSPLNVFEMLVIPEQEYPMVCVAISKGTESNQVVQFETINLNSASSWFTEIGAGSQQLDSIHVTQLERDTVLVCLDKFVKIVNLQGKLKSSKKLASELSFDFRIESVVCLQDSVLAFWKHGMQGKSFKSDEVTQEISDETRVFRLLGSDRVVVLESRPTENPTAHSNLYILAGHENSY
T18 sequence (P53667 whole entry): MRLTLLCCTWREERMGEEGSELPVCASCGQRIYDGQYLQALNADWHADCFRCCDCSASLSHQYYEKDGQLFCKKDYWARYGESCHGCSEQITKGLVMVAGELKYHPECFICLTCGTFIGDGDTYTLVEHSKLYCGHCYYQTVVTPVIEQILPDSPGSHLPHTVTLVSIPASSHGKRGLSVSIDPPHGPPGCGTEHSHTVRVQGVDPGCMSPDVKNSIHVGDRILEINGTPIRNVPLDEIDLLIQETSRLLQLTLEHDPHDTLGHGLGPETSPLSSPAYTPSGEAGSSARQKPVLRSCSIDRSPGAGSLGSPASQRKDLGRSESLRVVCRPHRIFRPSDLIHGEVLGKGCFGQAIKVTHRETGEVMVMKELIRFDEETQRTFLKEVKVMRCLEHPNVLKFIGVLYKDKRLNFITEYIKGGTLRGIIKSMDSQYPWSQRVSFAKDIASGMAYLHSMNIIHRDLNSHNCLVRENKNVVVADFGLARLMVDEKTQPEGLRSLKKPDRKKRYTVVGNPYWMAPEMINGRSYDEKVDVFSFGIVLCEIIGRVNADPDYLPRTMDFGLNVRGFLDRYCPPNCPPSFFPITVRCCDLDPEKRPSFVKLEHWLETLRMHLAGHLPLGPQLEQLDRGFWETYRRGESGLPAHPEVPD
T26 sequence (Q15759 whole entry): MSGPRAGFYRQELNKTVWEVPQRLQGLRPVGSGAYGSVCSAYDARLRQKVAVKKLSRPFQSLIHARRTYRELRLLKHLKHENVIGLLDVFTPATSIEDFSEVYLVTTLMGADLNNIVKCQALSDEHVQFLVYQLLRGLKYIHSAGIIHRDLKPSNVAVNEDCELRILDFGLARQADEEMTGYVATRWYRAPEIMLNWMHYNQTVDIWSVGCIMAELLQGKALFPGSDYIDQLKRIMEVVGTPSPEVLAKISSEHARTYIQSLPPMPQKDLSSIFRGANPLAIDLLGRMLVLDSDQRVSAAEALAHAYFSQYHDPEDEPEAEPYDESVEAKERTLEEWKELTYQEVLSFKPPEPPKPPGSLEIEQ
T27 sequence (P51957 whole entry): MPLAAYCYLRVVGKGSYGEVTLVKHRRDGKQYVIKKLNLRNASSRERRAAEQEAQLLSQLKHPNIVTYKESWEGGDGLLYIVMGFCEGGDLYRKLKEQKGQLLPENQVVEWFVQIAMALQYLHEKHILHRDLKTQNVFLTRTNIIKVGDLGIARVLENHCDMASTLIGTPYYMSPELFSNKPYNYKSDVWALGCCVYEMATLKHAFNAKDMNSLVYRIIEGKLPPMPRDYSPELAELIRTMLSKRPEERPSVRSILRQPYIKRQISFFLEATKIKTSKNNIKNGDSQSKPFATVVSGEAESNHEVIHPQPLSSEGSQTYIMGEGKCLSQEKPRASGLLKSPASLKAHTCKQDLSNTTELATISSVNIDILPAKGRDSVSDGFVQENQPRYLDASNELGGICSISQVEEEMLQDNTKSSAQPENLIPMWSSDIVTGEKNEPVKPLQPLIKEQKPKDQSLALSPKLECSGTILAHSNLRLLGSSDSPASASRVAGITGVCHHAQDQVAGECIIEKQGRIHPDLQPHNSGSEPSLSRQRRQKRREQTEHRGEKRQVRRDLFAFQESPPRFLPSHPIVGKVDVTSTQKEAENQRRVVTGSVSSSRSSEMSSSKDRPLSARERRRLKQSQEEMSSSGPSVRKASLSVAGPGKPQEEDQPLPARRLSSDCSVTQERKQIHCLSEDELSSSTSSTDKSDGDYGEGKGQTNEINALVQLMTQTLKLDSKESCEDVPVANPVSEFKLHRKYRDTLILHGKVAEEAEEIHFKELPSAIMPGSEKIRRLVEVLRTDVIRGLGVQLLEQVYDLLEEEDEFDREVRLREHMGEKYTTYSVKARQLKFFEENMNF
T21 sequence (Q15208 whole entry): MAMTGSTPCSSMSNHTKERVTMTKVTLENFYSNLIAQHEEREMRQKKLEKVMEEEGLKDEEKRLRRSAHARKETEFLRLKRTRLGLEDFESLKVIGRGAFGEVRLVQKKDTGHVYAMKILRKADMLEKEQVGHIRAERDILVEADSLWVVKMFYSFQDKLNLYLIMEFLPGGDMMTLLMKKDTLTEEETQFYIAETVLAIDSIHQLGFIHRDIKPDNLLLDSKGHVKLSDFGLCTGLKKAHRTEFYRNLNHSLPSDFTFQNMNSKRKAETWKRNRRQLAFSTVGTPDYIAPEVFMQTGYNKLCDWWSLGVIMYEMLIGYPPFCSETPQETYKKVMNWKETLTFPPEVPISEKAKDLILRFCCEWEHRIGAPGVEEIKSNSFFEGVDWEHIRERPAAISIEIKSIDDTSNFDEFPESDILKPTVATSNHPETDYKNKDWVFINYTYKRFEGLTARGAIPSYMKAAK

Structure (SMILES): CCC(=O)Nc1cc(Nc2cc(NC3CC3)n3ncc(C#N)c3n2)c(F)cc1N1CCC[C@H](NC)C1 [Compound 2, (S)-N-(5-((3-cyano-7-(cyclopropylamino)pyrazolo[1,5-a]pyrimidin-5-yl)amino)-4-fluoro-2-(3-(methylamino)piperidin-1-yl)phenyl)propionamide]
- receptor occupancy at 10 µM [1]: -1.9%
- receptor occupancy at 10 µM [2]: 14.6%
- receptor occupancy at 10 µM [3]: 23.6%
- receptor occupancy at 10 µM [4]: 0.6%
- receptor occupancy at 10 µM [5]: 9.1%
- receptor occupancy at 10 µM [6]: 39.9%
- receptor occupancy at 10 µM [7]: 7.7%
- receptor occupancy at 10 µM [8]: 1.5%
- receptor occupancy at 10 µM [9]: 12.4%
- receptor occupancy at 10 µM [10]: 7.4%
- receptor occupancy at 10 µM [11]: 9.1%
- receptor occupancy at 10 µM [12]: 8.5%
- receptor occupancy at 10 µM [13]: 15.3%
- receptor occupancy at 10 µM [14]: 9.3%
- receptor occupancy at 10 µM [15]: 1.1%
- receptor occupancy at 10 µM [16]: -11.1%
- receptor occupancy at 10 µM [17]: 6.4%
- receptor occupancy at 10 µM [18]: 6.6%
- receptor occupancy at 10 µM [19]: 8.5%
- receptor occupancy at 10 µM [20]: -0.1%
- receptor occupancy at 10 µM [21]: -0.8%
- receptor occupancy at 10 µM [22]: 11.9%
- receptor occupancy at 10 µM [23]: 20.2%
- receptor occupancy at 10 µM [24]: 1%
- receptor occupancy at 10 µM [25]: 7.8%
- receptor occupancy at 10 µM [26]: 9.4%
- receptor occupancy at 10 µM [27]: 7.8%
- receptor occupancy at 10 µM [28]: 4.6%
- receptor occupancy at 10 µM [29]: 7.6%
